Assay results: patent US11932629B2, “KDM1A inhibitors for the treatment of disease” (Imago Biosciences, Inc., priority 2018, dated 2024)

The compounds below were run against LSD1 (Homo sapiens, UniProt O60341) (assay: LSD1 fluorescence coupling enzyme assay (HRP/Amplex Red), 10-dose IC50 mode). Conditions: 10-dose IC50 mode, 3-fold serial dilution in duplicate starting at 100 μM; 10 μM histone H3(1-21)K4me2 peptide substrate; read-out: RB LSD1 ave.
Type: biochemical
Description: Compounds were tested in a 10-dose IC50 mode fluorescence coupling enzyme assay with 3-fold serial dilution in duplicate starting at 100 μM. The production of FAD-dependent H2O2 as a result of demethylase activity of LSD1 on 10 μM histone H3(1-21)K4me2 peptide substrate was measured by coupling with HRP and Amplex Red to yield resorufin (fluorescence measured at Ex/Em=535/590 nm on EnVision, Perkin Elmer).
Work on `CN1CCN(c2nc(CCCN[C@@H]3C[C@H]3c3ccc(F)cc3)c[nH]c2=O)CC1` [Example 2, 5-[3-([(1R,2S)-2-(4-fluorophenyl)cyclopropyl]amino)propyl] 3-[4-methylpiperazin-1-yl]-pyrazin-2(1H)-one] yielded an IC50 of 28 nM. `CS(=O)(=O)N1CCN(c2nc(CCCN[C@@H]3C[C@H]3c3ccc(F)cc3)c[nH]c2=O)CC1` [Example 3, 5-[3-([(1R,2S)-2-(4-fluorophenyl)cyclopropyl]amino)propyl]-3-[4-(methylsulfonyl)piperazin-1-yl]pyrazin-2(1H)-one] was tested, and the IC50 was 7 nM. `O=c1[nH]cc(CCCN[C@@H]2C[C@H]2c2ccc(F)cc2)nc1N1CCOCC1` [Example 4, 5-[3-([(1R,2S)-2-(4-fluorophenyl)cyclopropyl]amino)propyl]-3-morpholinopyrazin-2(1H)-one] showed an IC50 of 7 nM. `O=c1[nH]cc(CCCN[C@@H]2C[C@H]2c2ccc(F)cc2)nc1N1CCC1` [Example 5, 3-[Azetidin-1-yl]-5-[3-([(1R,2S)-2-(4-fluorophenyl)cyclopropyl]amino)propyl]-pyrazin-2(1H)-one] gave an IC50 of 12 nM. `O=c1c(N2CCS(=O)(=O)CC2)nc(CCCN[C@@H]2C[C@H]2c2ccc(F)cc2)cn1C1CC1` [Example 8, 1-Cyclopropyl-3-[1,1-dioxidothiomorpholino]-5-[3-([(1R,2S)-2-(4-fluorophenyl)cyclopropyl]amino)propyl]pyrazin-2(1H)-one] was tested, and the IC50 was 48 nM. Compound `O=c1[nH]cc(CCCN[C@@H]2C[C@H]2c2ccccc2)nc1N1CCS(=O)(=O)CC1` [Example 9, 3-(1,1-Dioxidothiomorpholino)-5-(3-(((1R,2S)-2-phenylcyclopropyl)amino)propyl)pyrazin-2(1H)-one] has an IC50 of 6 nM. Work on `O=C(O)C1CCN(c2nc(CCCN[C@@H]3C[C@H]3c3ccc(F)cc3)c[nH]c2=O)CC1` [Example 10, 1-[6-(3-[([1R,2S]-2-[4-fluorophenyl]cyclopropyl)amino]propyl)-3-oxo-3,4-dihydropyrazin-2-yl]piperidine-4-carboxylic acid] yielded an IC50 of 300 nM. Compound `CN(C)S(=O)(=O)c1ccc(-n2cc(CCCN[C@@H]3C[C@H]3c3ccc(F)cc3)nc(N3CCNCC3)c2=O)cc1` [Example 14, 4-[5-(3-[([1R,2S]-2-[4-fluorophenyl]cyclopropyl)amino]propyl)-2-oxo-3-(piperazin-1-yl)pyrazin-1(2H)-yl]-N,N-dimethylbenzenesulfonamide] has an IC50 of 10 nM. Work on `O=c1c(N2CCNCC2)nc(CCCN[C@@H]2C[C@H]2c2ccc(F)cc2)cn1-c1ccc(F)cc1` [Example 26, 1-[4-Fluorophenyl]-5-[3-([(1R,2S)-2-(4-fluorophenyl)cyclopropyl]amino)propyl]-3-(piperazin-1-yl)pyrazin-2(1H)-one] yielded an IC50 of 4 nM. `O=c1c(N2CCNCC2)nc(CCCN[C@@H]2C[C@H]2c2ccc(F)cc2)cn1-c1ccc(-n2ccnn2)cc1` [Example 27, 1-[4-(1H-1,2,3-triazol-1-yl)phenyl]-5-[3-([(1R,2S)-2-(4-fluorophenyl)-cyclopropyl]amino)propyl]-3-[piperazin-1-yl]pyrazin-2(1H)-one] showed an IC50 of 17 nM. `O=c1c(N2CCNCC2)nc(CCCN[C@@H]2C[C@H]2c2ccc(F)cc2)cn1-c1ccc(-c2ncccn2)cc1` [Example 28, 5-[3-([(1R,2S)-2-(4-fluorophenyl)cyclopropyl]amino)propyl]-3-[piperazin-1-yl]-1-[4-(pyrimidin-2-yl)phenyl]pyrazin-2(1H)-one] was tested, and the IC50 was 6 nM. For `O=c1c(N2CCNCC2)nc(CCCN[C@@H]2C[C@H]2c2ccc(F)cc2)cn1-c1ccc(-c2cccnn2)cc1` [Example 29, 5-[3-([(1R,2S)-2-(4-fluorophenyl)cyclopropyl]amino)propyl]-3-[piperazin-1-yl]-1-[4-(pyridazin-3-yl)phenyl]pyrazin-2(1H)-one], the IC50 was 2 nM. Compound `CN(C)S(=O)(=O)c1ccc(-n2cc(CCCN[C@@H]3C[C@H]3c3ccc(F)cc3)nc(N3CCN(S(C)(=O)=O)CC3)c2=O)cc1` [Example 30, 4-[5-(3-[[(1R,2S)-2-(4-Fluorophenyl)cyclopropyl]amino]propyl)-3-(4-methanesulfonylpiperazin-1-yl)-2(1H)-oxopyrazin-1-yl]-N,N-dimethylbenzene-1-sulfonamide] has an IC50 of 2 nM. Compound `O=c1[nH]cc(CCCN[C@@H]2C[C@H]2c2ccc(F)cc2)nc1N1CCNCC1` [Example 31, 5-[3-([(1R,2S)-2-(4-fluorophenyl)cyclopropyl]amino)propyl]-3-[piperazin-1-yl]pyrazin-2(1H)-one] has an IC50 of 4 nM. `O=c1[nH]cc(CCCN[C@@H]2C[C@H]2c2ccc(F)cc2)nc1N1CCS(=O)(=O)CC1` [Example 32, 3-[1,1-Dioxidothiomorpholino]-5-[3-([(1R,2S)-2-(4-fluorophenyl)cyclopropyl]amino)propyl]pyrazin-2(1H)-one] was tested, and the IC50 was 9 nM. In the case of `O=c1c(-c2cn[nH]c2)nc(CCCN[C@@H]2C[C@H]2c2ccc(F)cc2)cn1-c1ccc(F)cc1` [Example 36, 1-[4-fluorophenyl]-5-[3-([(1R,2S)-2-(4-fluorophenyl)cyclopropyl]amino)propyl]-3-[1H-pyrazol-4-yl]pyrazin-2(1H)-one], the IC50 is reported as 13 nM. `CN1CCN(c2nc(CCCN[C@@H]3C[C@H]3c3ccc(F)cc3)c[nH]c2=O)CC1=O` [Example 41, 5-[3-([(1R,2S)-2-(4-fluorophenyl)cyclopropyl]amino)propyl]-3-[4-methyl-3-oxopiperazin-1-yl]pyrazin-2(1H)-one] gave an IC50 of 24 nM. `N#Cc1ccc(-n2cc(CCCN[C@@H]3C[C@H]3c3ccc(F)cc3)nc(N3CC4(COC4)C3)c2=O)cc1` [Example 44, 4-[5-(3-[([1R,2S]-2-[4-fluorophenyl]cyclopropyl)amino]propyl)-2-oxo-3-(2-oxa-6-azaspiro[3.3]heptan-6-yl)pyrazin-1(2H)-yl]benzonitrile] gave an IC50 of 6 nM. `O=C1CN(c2nc(CCCN[C@@H]3C[C@H]3c3ccc(F)cc3)cn(Cc3ccccc3)c2=O)CCN1` [Example 46, 1-benzyl-5-[3-([(1R,2S)-2-(4-fluorophenyl)cyclopropyl]amino)propyl]-3-[3-oxopiperazin-1-yl]pyrazin-2(1H)-one] showed an IC50 of 7 nM. Work on `O=C1CN(c2nc(CCCN[C@@H]3C[C@H]3c3ccc(F)cc3)c[nH]c2=O)CCN1` [Example 48, 5-[3-([(1R,2S)-2-(4-fluorophenyl)cyclopropyl]amino)propyl]-3-[3-oxopiperazin-1-yl]pyrazin-2(1H)-one] yielded an IC50 of 15 nM.
